Measured values: article PMC6354023, “A phase I study of the HDM2 antagonist SAR405838 combined with the MEK inhibitor pimasertib in patients with advanced solid tumours” (British Journal of Cancer, 2018)
Read-outs that look alike come from different tables or passages of the source.

How the values were obtained:
[1] = Pharmacokinetics of SAR405838 (whole-blood concentrations) in combination; type: in vivo, human; conditions: SAR405838 and pimasertib administered in combination
From the text: (§1) Blood samples were collected on Days 1 (for pimasertib only), 2, 3, 8 and 15 of Cycle 1, on Days 1 and 2 of Cycle 2, and on Day 1 of Cycles 3 and 4, to determine the whole-blood and plasma concentrations of SAR405838 and pimasertib, respectively.

[2] = set-up: method as in doi:10.1016/S0959-8049(12)72401-2; conditions: cited from earlier work
[3] = test system: pERK; assay: pERK levels in PMA-stimulated PBMCs by flow cytometry; type: in vivo, human
Procedure: MIC-1 protein concentrations were measured in plasma samples using an analytically validated enzyme-linked immunosorbent assay (Quantikine® Human GDF-15 immunoassay). pERK levels were determined by evaluating median value changes in response to ex vivo stimulation with or without phorbol myristate acetate (PMA) over time in whole-blood samples (CD 45^+ and lymphocyte populations) by flow cytometry (BD FACSCanto™ II instrument). Stimulated pERK levels were calculated as percentage (PMA-dimethylsulphoxide [DMSO])/DMSO).

[4] = Safety assessments: adverse events (NCI-CTCAE v4.03), laboratory abnormalities; type: in vivo, human; conditions: of 26 treated patients, in combination
Procedure: Safety was assessed by the evaluation of AEs, DLTs, changes in vital signs, ECOG PS, physical examinations,12-lead electrocardiograms, determination of LVEF, ophthalmological examinations and clinical laboratory tests (including haematology, coagulation, blood chemistry and urinalysis).

[5] = Pharmacokinetics of pimasertib (plasma concentrations) in combination; type: in vivo, human; conditions: for AUC(0-t) / Cmax / half-life / Tmax: human, plasma, oral; for AUC(0-t): read-out: Pimasertib AUC0–12, mean ± SD; for Cmax: read-out: Pimasertib Cmax, mean ± SD; for half-life: read-out: Pimasertib t1/2 (converted); for Tmax: read-out: Pimasertib tmax, median (range)
From the text: as §1

[6] = DL1 SAR405838 200 mg QD + pimasertib 45 mg BID, C1D2
[7] = DL1 SAR405838 200 mg QD + pimasertib 45 mg BID, C2D1
[8] = DL2a SAR405838 200 mg QD + pimasertib 60 mg QD, C1D1
[9] = DL2a SAR405838 200 mg QD + pimasertib 60 mg QD, C1D2
[10] = DL2b SAR405838 300 mg QD + pimasertib 45 mg BID, C1D1
[11] = DL2b SAR405838 300 mg QD + pimasertib 45 mg BID, C1D2
[12] = DL2b SAR405838 300 mg QD + pimasertib 45 mg BID, C2D1
[13] = DL3a SAR405838 300 mg QD + pimasertib 60 mg QD, C1D1
[14] = DL3a SAR405838 300 mg QD + pimasertib 60 mg QD, C1D2
[15] = DL3a SAR405838 300 mg QD + pimasertib 60 mg QD, C2D1
[16] = DL1 SAR405838 200 mg QD + pimasertib 45 mg BID, C1D1
[17] = DL2a SAR405838 200 mg QD + pimasertib 60 mg QD, C2D1

O=C(NC[C@H](O)CO)c1ccncc1Nc1ccc(I)cc1F [pimasertib]
PK in combination compared with PK as monotherapy [1]: similar
Recommended phase II dose, monotherapy ([2]; BID): 60 mg
MTD, monotherapy, QD regimen ([2]; once daily): 90 mg
DLTs, monotherapy ([2]; phase I dose-escalation trial): skin rash, acneiform dermatitis, ocular events and stomatitis
MTD, monotherapy, BID regimen ([2]; twice daily): 60 mg
Time pERK inhibition was maintained [3]: 4 h
pERK inhibition ([3]; C1D1, C1D2 and C2D1, at or around tmax of pimasertib, at most DLs): ≥ 80%
Patients with dose modification, reduction or omission [4]: 18 patients
Pimasertib tmax, median (range) [5, 6]: 1.5 [0.5–2] (7) h
Pimasertib tmax, median (range) [5, 7]: 1.5 [0.5–1.5] (6) h
Pimasertib AUC0–12, mean ± SD [5, 8]: 1120 ± 410 (4; 37) ng.h/mL
Pimasertib tmax, median (range) [5, 8]: 1.5 [0.5–1.5] (4) h
Pimasertib AUC0–12, mean ± SD [5, 9]: 1130 ± 422 (4; 37) ng.h/mL
Pimasertib tmax, median (range) [5, 10]: 1.5 [0.5–1.5] (7) h
Pimasertib tmax, median (range) [5, 11]: 1.5 [1.5–2] (7) h
Pimasertib tmax, median (range) [5, 12]: 1.5 [0.5–2] (6) h
Pimasertib t1/2 [5, 13]: 5.25 ± 1.83 (7; 35) h
Pimasertib tmax, median (range) [5, 14]: 1.5 [0.5-2] (7) h
Pimasertib tmax, median (range) [5, 15]: 1.5 [0.5–1.5] (5) h
Exposure change with dose increase (33%) ([5]; between DL1/DL2b (pimasertib 45 mg BID) and DL2a/DL3a (pimasertib 60 mg BID)): resulted in pimasertib exposure increase
AUC(0-t) [5, 16]: 755 ± 382 ng·h/mL
Cmax [5, 16]: 218 ± 108 ng/mL
half-life [5, 16]: 4.76 ± 1.17 h
Tmax [5, 16]: 0.5 h
AUC(0-t) [5, 6]: 689 ± 324 ng·h/mL
Cmax [5, 6]: 200 ± 102 ng/mL
AUC(0-t) [5, 7]: 862 ± 350 ng·h/mL
Cmax [5, 7]: 226 ± 70.6 ng/mL
Cmax [5, 8]: 301 ± 69.9 ng/mL
half-life [5, 8]: 5.38 ± 0.276 h
Cmax [5, 9]: 303 ± 134 ng/mL
Tmax [5, 9]: 1 h
AUC(0-t) [5, 17]: 1040 ± 504 ng·h/mL
Cmax [5, 17]: 269 ± 134 ng/mL
AUC(0-t) [5, 10]: 779 ± 594 ng·h/mL
Cmax [5, 10]: 184 ± 109 ng/mL
half-life [5, 10]: 4.71 ± 1.39 h
AUC(0-t) [5, 11]: 684 ± 367 ng·h/mL
Cmax [5, 11]: 182 ± 110 ng/mL
AUC(0-t) [5, 12]: 532 ± 166 ng·h/mL
Cmax [5, 12]: 147 ± 93.8 ng/mL
AUC(0-t) [5, 13]: 935 ± 469 ng·h/mL
Cmax [5, 13]: 221 ± 98.3 ng/mL
Tmax [5, 13]: 1 h
AUC(0-t) [5, 14]: 917 ± 390 ng·h/mL
Cmax [5, 14]: 200 ± 84.4 ng/mL
AUC(0-t) [5, 15]: 765 ± 314 ng·h/mL
Cmax [5, 15]: 243 ± 65.4 ng/mL
